Data from PubChem BioAssay AID1963433 (Molecular Pharmacology Branch, DTP, NCI, 2024).

System: 772245-204-R-J1-PDC complex spheroid growth
Assay: Anticancer human tumor 772245-204-R-J1-PDC patient-derived rhabdomyosarcoma cell line growth inhibition [Asc]
Conditions: for IC50: curve of first compound; for viability, T/C: stronger effect = lower value; active = viability on the fitted dose curve at most 10% of control; inactive = the rest
Description: Multicellular complex tumor spheroid response to apoptosis pathway targeting inhibitors Alrizomadlin, Pelcitoclax, and Dasminapant in combination with a variety of drugs and investigational agents in selected tumor cell lines
The MDM2 inhibitor alrizomadlin, the Bcl-2/Bcl-xL inhibitor pelcitoclax, and the IAPs inhibitor dasminapant were evaluated both individually and in combination with standard of care and investigational anticancer small molecules within a complex spheroid model of solid tumors. . Complex spheroids include a stromal component modeled by human endothelial cells (HUVEC) and fibroblasts modeled by human mesenchymal stem cells (MSCs). The concentration ranges selected for each drug and investigational agent were based upon clinically achievable concentrations if the clinical Cmax of the agent was known.
Compounds. The drugs and investigational agents: alrizomadlin (APG-115; NSC831270), pelcitoclax (APG-1252; NSC835773), dasminapant (APG-1387;NSC834197), TAK-243 (NSC785004), copanlisib (NSC809693), olaparib (NSC753686), talazoparib (NSC767125), cobimetinib (NSC 768068), eltanexor (KPT-8602, NSC 794443), abemaciclib (NSC 768073), sotorasib (NSC818433), adagrasib (NSC 831453), MRTX-1133 (NSC 836407), Iadademestat (ORY1001, NSC 806812), and RMC-4630 (NSC839698), were obtained from the NCI Developmental Therapeutics Program Chemical Repository. The FDA-approved anticancer drug set is available from the Developmental Therapeutics Program at https://dtp.cancer.gov/organization/dscb/obtaining/available plates.htm. […] The stock solutions were prepared in dimethyl sulfoxide (DMSO, Sigma-Aldrich, St. Louis, MO, cat. D2650) at 800-fold the tested concentration and stored at -70 degrees C prior to their use. All drugs and investigational agents were tested over a range starting from a high concentration at or near the clinical Cmax and decreasing in half-log increments. If the clinical Cmax for an agent had not been determined, the highest concentration tested was 10 microM.
The patient-derived cancer (PDC) cell lines include five colon adenocarcinomas: 186277-243-T-J2-PDC, 616215-338-R-J1-PDC, 439559-082-T-J2-PDC, 463943-066-T-J2-PDC, and 519858-162-T-J1-PDC; three pancreatic carcinomas: 323965-272-R-J2-PDC, 521955-158-R6-J3-PDC, and 521955-158-R2-J5-PDC; two uterine sarcomas: 327498-152-R-J2-PDC and 993429-296-R-J1-PDC; two rhabdomyosarcomas: 755483-174-R-J1-PDC and 772245-204-R-J1-PDC; two soft tissue sarcomas: 126254-015-R-J1-PDC and 494315-158-R-J1-PDC; two malignant fibrous histiocytomas: 317291-083-R-J1-PDC and 596521-263-R-J1-PDC; two breast carcinomas: 171881-019-R-J1-PDC and 885512-296-R-J2-PDC; and one ovarian carcinoma: 6556581-035-R-J-PDC were obtained from the NCI PDMR, (https://pdmr.cancer.gov). The established cell lines HSSY-2 synovial sarcoma (RRID:CVCL 8719), SYO-1 synovial sarcoma (RRID:CVCL_7146), MPNST malignant peripheral neural sheath tumor were obtained from the Sloan Kettering Institute. The following established cell lines were purchased from the American Type Culture Collection (ATCC, Manassas, VA), Sor the received from the NCI repository:, PANC-1 pancreatic carcinoma (CRL-1469, RRID:CVCL_0480), OVCAR-5 ovarian carcinoma (RRID:CVCL_1628), OVCAR-8 ovarian carcinoma (RRID:CVCL_1629), , MCF-7 breast carcinoma (CRL-12584, RRID:CVCL_0031), MDA-MB-231 breast carcinoma (CRL-12532, RRID:CVCL_0062), NCI-H1876 small cell lung carcinoma (CRL-5902, RRID:CVCL_1503), NCI-H510A small cell lung carcinoma (HTB-184, RRID:CVCL_1565), NCI-H1417 (CRL-5869, RRID:CVCL_1469), and NCI-H196 small cell lung carcinoma (CRL-5823, RRID:CVCL_1509). Dr. Peter Houghton (Greehey Children's Cancer Research Institute, University of Texas Health Science Center, San Antonio, TX) provided Rh-18 rhabdomyosarcoma (RRID:CVCL_1659). Pooled donor human umbilical vein endothelial cells (HUVEC, Lonza, cat. CC-2519) and human mesenchymal stem cells (hMSC, Lonza, cat. PT-2501) were purchased from Lonza (Walkersville, MD).
Cell Culture. […]

[1] = second compound 0.03 µM, first compound 0.00316 µM
[2] = second compound 0.03 µM, first compound 0.01 µM
[3] = second compound 0.03 µM, first compound 0.0316 µM
[4] = second compound 0.03 µM, first compound 0.1 µM
[5] = second compound 0.0949 µM, first compound 0.00316 µM
[6] = second compound 0.0949 µM, first compound 0.01 µM
[7] = second compound 0.0949 µM, first compound 0.0316 µM
[8] = second compound 0.0949 µM, first compound 0.1 µM
[9] = second compound 0.3 µM, first compound 0.00316 µM
[10] = second compound 0.3 µM, first compound 0.01 µM
[11] = second compound 0.3 µM, first compound 0.0316 µM
[12] = second compound 0.3 µM, first compound 0.1 µM
[13] = second compound 0.949 µM, first compound 0.00316 µM
[14] = second compound 0.949 µM, first compound 0.01 µM
[15] = second compound 0.949 µM, first compound 0.0316 µM
[16] = second compound 0.949 µM, first compound 0.1 µM
[17] = second compound 3 µM, first compound 0.00316 µM
[18] = second compound 3 µM, first compound 0.01 µM
[19] = second compound 3 µM, first compound 0.0316 µM
[20] = second compound 3 µM, first compound 0.1 µM
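Also: compound exposure lasted seven days.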
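For viability, T/C in this document: 100% = DMSO vehicle control viability.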

CCN1CCN(Cc2ccc(Nc3ncc(F)c(-c4cc(F)c5nc(C)n(C(C)C)c5c4)n3)nc2)CC1 + CCN1C(C(=O)NC23CCC(C(=O)O)(CC2)CC3)C(c2cccc(Cl)c2F)C2(C(=O)Nc3cc(Cl)ccc32)C12CCCCC2
> 1 µM: IC50 (second compound 0.03 µM) | IC50 (second compound 0.0949 µM) | IC50 (second compound 0.3 µM) | IC50 (second compound 0.949 µM) | IC50 (second compound 3 µM)
inactive: viability, T/C [1] 100% | viability, T/C [2] 97.4% | viability, T/C [3] 103% | viability, T/C [4] 110% | viability, T/C (second compound 0.03 µM, first compound 0.316 µM) 114% | viability, T/C (second compound 0.03 µM, first compound 1 µM) 116% | viability, T/C [5] 99.5% | viability, T/C [6] 110% | viability, T/C [7] 101% | viability, T/C [8] 111% | viability, T/C (second compound 0.0949 µM, first compound 0.316 µM) 114% | viability, T/C (second compound 0.0949 µM, first compound 1 µM) 116% | viability, T/C [9] 106% | viability, T/C [10] 111% | viability, T/C [11] 122% | viability, T/C [12] 103% | viability, T/C (second compound 0.3 µM, first compound 0.316 µM) 102% | viability, T/C (second compound 0.3 µM, first compound 1 µM) 131% | viability, T/C [13] 94.3% | viability, T/C [14] 93.4% | viability, T/C [15] 100% | viability, T/C [16] 102% | viability, T/C (second compound 0.949 µM, first compound 0.316 µM) 92.9% | viability, T/C (second compound 0.949 µM, first compound 1 µM) 96% | viability, T/C [17] 77.9% | viability, T/C [18] 84.7% | viability, T/C [19] 85.5% | viability, T/C [20] 89.9% | viability, T/C (second compound 3 µM, first compound 0.316 µM) 80.1% | viability, T/C (second compound 3 µM, first compound 1 µM) 121%

NC(=O)C(=Cn1cnc(-c2cc(C(F)(F)F)cc(C(F)(F)F)c2)n1)c1cncnc1 + CCN1C(C(=O)NC23CCC(C(=O)O)(CC2)CC3)C(c2cccc(Cl)c2F)C2(C(=O)Nc3cc(Cl)ccc32)C12CCCCC2
0.0282 µM: IC50 (second compound 0.949 µM)
0.0273 µM: IC50 (second compound 0.0949 µM)
0.0145 µM: IC50 (second compound 3 µM)
0.0755 µM: IC50 (second compound 0.03 µM)
inactive: viability, T/C (second compound 0.03 µM, first compound 0.000949 µM) 88.9% | viability, T/C (second compound 0.03 µM, first compound 0.003 µM) 96.5% | viability, T/C (second compound 0.03 µM, first compound 0.00949 µM) 97.1% | viability, T/C (second compound 0.03 µM, first compound 0.03 µM) 92.4% | viability, T/C (second compound 0.03 µM, first compound 0.0949 µM) 38.5% | viability, T/C (second compound 0.03 µM, first compound 0.3 µM) 40.5% | viability, T/C (second compound 0.0949 µM, first compound 0.000949 µM) 103% | viability, T/C (second compound 0.0949 µM, first compound 0.003 µM) 93.1% | viability, T/C (second compound 0.0949 µM, first compound 0.00949 µM) 88.5% | viability, T/C (second compound 0.0949 µM, first compound 0.03 µM) 44.5% | viability, T/C (second compound 0.0949 µM, first compound 0.0949 µM) 37.2% | viability, T/C (second compound 0.0949 µM, first compound 0.3 µM) 22.6% | viability, T/C (second compound 0.3 µM, first compound 0.000949 µM) 94.7% | viability, T/C (second compound 0.3 µM, first compound 0.003 µM) 105% | viability, T/C (second compound 0.3 µM, first compound 0.00949 µM) 85.2% | viability, T/C (second compound 0.3 µM, first compound 0.03 µM) 62.8% | viability, T/C (second compound 0.3 µM, first compound 0.0949 µM) 31.1% | viability, T/C (second compound 0.3 µM, first compound 0.3 µM) 30.4% | viability, T/C (second compound 0.949 µM, first compound 0.000949 µM) 92.8% | viability, T/C (second compound 0.949 µM, first compound 0.003 µM) 88.8% | viability, T/C (second compound 0.949 µM, first compound 0.00949 µM) 84.7% | viability, T/C (second compound 0.949 µM, first compound 0.03 µM) 46.4% | viability, T/C (second compound 0.949 µM, first compound 0.0949 µM) 28.8% | viability, T/C (second compound 0.949 µM, first compound 0.3 µM) 18.1% | viability, T/C (second compound 3 µM, first compound 0.000949 µM) 69.9% | viability, T/C (second compound 3 µM, first compound 0.003 µM) 66.9% | viability, T/C (second compound 3 µM, first compound 0.00949 µM) 69.5% | viability, T/C (second compound 3 µM, first compound 0.03 µM) 17.7% | viability, T/C (second compound 3 µM, first compound 0.0949 µM) 10.8% | viability, T/C (second compound 3 µM, first compound 0.3 µM) 15.9%
0.0473 µM: IC50 (second compound 0.3 µM)

NC1CCC(NC2CC2c2ccccc2)CC1 (stereo not given) + CCN1C(C(=O)NC23CCC(C(=O)O)(CC2)CC3)C(c2cccc(Cl)c2F)C2(C(=O)Nc3cc(Cl)ccc32)C12CCCCC2
> 0.1 µM: IC50 (second compound 0.03 µM) | IC50 (second compound 0.0949 µM) | IC50 (second compound 0.3 µM) | IC50 (second compound 0.949 µM) | IC50 (second compound 3 µM)
inactive: viability, T/C (second compound 0.03 µM, first compound 0.000316 µM) 103% | viability, T/C (second compound 0.03 µM, first compound 0.001 µM) 94.6% | viability, T/C [1] 100% | viability, T/C [2] 86.5% | viability, T/C [3] 108% | viability, T/C [4] 98.1% | viability, T/C (second compound 0.0949 µM, first compound 0.000316 µM) 96.3% | viability, T/C (second compound 0.0949 µM, first compound 0.001 µM) 96.3% | viability, T/C [5] 90.3% | viability, T/C [6] 92.5% | viability, T/C [7] 84.9% | viability, T/C [8] 93.5% | viability, T/C (second compound 0.3 µM, first compound 0.000316 µM) 106% | viability, T/C (second compound 0.3 µM, first compound 0.001 µM) 80.2% | viability, T/C [9] 101% | viability, T/C [10] 85.5% | viability, T/C [11] 111% | viability, T/C [12] 89.8% | viability, T/C (second compound 0.949 µM, first compound 0.000316 µM) 95.2% | viability, T/C (second compound 0.949 µM, first compound 0.001 µM) 80.8% | viability, T/C [13] 83.6% | viability, T/C [14] 86.9% | viability, T/C [15] 95.1% | viability, T/C [16] 96.3% | viability, T/C (second compound 3 µM, first compound 0.000316 µM) 70.2% | viability, T/C (second compound 3 µM, first compound 0.001 µM) 65.8% | viability, T/C [17] 73.2% | viability, T/C [18] 77.9% | viability, T/C [19] 73.1% | viability, T/C [20] 75.4%
